Six molecules from ChEMBL document CHEMBL2034833, “Synthesis of chalcone-amidobenzothiazole conjugates as antimitotic and apoptotic inducing agents” (Bioorg Med Chem, 2012) can be followed below.

Active and inactive are the calls of the source. The rule behind the calls is not given here.

Assay [1] can be described thus: Inhibition of tubulin polymerization at 3 uM after 1 hr by fluorescence assay.
The test system of assay [2] is A549. As to the kind of experiment: Cell cycle arrest in human A549 cells assessed as cell accumulation at subG1 phase at 2 uM after 48 hrs by propidium iodide staining based flow cytometry (reference value: […]). It is filed as functional.
The subject of assay [3] is A549. Nature of the assay: Induction of apoptosis in human A549 cells assessed as necrotic cells at 2 uM after 48 hrs by annexin-V FITC/propidium iodide staining based FACS analysis. It is filed as functional.
For assay [4], the system named is A-375. Nature of the assay: Cytotoxicity against human A375 cells after 48 hrs by MTT assay. Format: functional, cell-based. The settings on record: A-375, 48 h.
The test system of assay [5] is ACHN. Nature of the assay: Cytotoxicity against human ACHN cells after 48 hrs by MTT assay. It is filed as functional, cell-based.
For assay [6], the system named is HT-29. As to the kind of experiment: Cytotoxicity against human HT-29 cells after 48 hrs by MTT assay. Format: functional, cell-based. The following applies: HT-29, 48 h.
Assay [7] has as its system A549. As to the kind of experiment: Induction of apoptosis in human A549 cells assessed as viable cells at 2 uM after 48 hrs by annexin-V FITC/propidium iodide staining based FACS analysis. It is filed as functional. The settings on record: A549, 48 h, read-out: Activity.
Assay [8] deals with A549. Nature of the assay: Induction of apoptosis in human A549 cells assessed as early apoptotic cells at 2 uM after 48 hrs by annexin-V FITC/propidium iodide staining based FACS analysis. Format: functional.
For assay [9], the system named is A549. As to the kind of experiment: Cell cycle arrest in human A549 cells assessed as cell accumulation at G2/M phase at 2 uM after 48 hrs by propidium iodide staining based flow cytometry (reference value: 23.75%). Format: functional.
Assay [10] has as its system A549. Nature of the assay: Cell cycle arrest in human A549 cells assessed as cell accumulation at G0/G1 phase at 2 uM after 48 hrs by propidium iodide staining based flow cytometry (reference value: 70.15%). Format: functional.
Assay [11] relates to A549. As to the kind of experiment: Induction of apoptosis in human A549 cells assessed as late apoptotic cells at 2 uM after 48 hrs by annexin-V FITC/propidium iodide staining based FACS analysis. Format: functional.
Assay [12] concerns A549. Nature of the assay: cells. The following applies: Homo sapiens, A549, 48 h.
Description: Cytotoxicity against human A549 cells after 48 hrs by MTT assay
Assay [13] concerns MCF7. Nature of the assay: cells. The following applies: Homo sapiens, MCF7, 48 h.
Description: Cytotoxicity against human MCF7 cells after 48 hrs by MTT assay
Assay [14] deals with Tubulin (Homo sapiens) (UniProt P68371+Q9H4B7+P0DPH7+P68366+Q13509+Q71U36+P04350+Q3ZCM7+P07437+P68363+Q9BQE3+Q6PEY2+Q13885+Q9BVA1+Q9BUF5). Nature of the assay: Inhibition of tubulin polymerization in human A549 cells assessed as disrupted microtubule organization at 2 uM after 48 hrs by immunohistochemistry analysis. Format: cell-based.
Assay [15] in a line: Inhibition of tubulin polymerization after 1 hr by fluorescence assay.
For assay [16], the system named is A549. As to the kind of experiment: Induction of apoptosis in human A549 cells assessed as increase in caspase3 activity using AFC-conjugated Ac-DEVD as substrate at 2 uM after 48 hrs by fluorescence assay relative to control. Format: functional.

Consider `COC(=O)Nc1nc2cc(C(=O)c3cccs3)ccc2[nH]1`, for which the inhibition in assay [1] was determined as 59.6%.

Take `COc1ccc(/C=C\c2cc(OC)c(OC)c(OC)c2)cc1O` [COMBRETASTATIN A4]: the Activity in assay [2] is on record as 8.44%; in assay [3] it was 22%; in assay [8], 0.3%; in assay [9], 63.75%; in assay [10], 13.98%; in assay [11] it was 23.3%. The IC50 in assay [4] turned out to be 0.21 µM; in assay [5], 0.17 µM; in assay [6], 0.93 µM; in [12] it was 0.11 µM; in [13], 0.18 µM. Also, in assay [7], the viability at 2 µM came out at 54.4%. This molecule also showed an inhibition in assay [1] of 69.7%.

On to `COc1ccc(/C=C/C(=O)c2cc(OC)c(OC)c(OC)c2)cc1OCC(=O)Nc1nc2ccccc2s1`, for which, in [14], the inhibition entry is “Active”.

`COc1ccc(/C=C/C(=O)c2cc(OC)c(OC)c(OC)c2)cc1OCC(=O)Nc1nc2c(C)cccc2s1`: the IC50 in assay [4] is 2.8 µM; in assay [5], 3.8 µM; in assay [6] (read-out: IC50), 6.1 µM; in assay [12], 5.1 µM; in assay [13], 2.5 µM.

As for `CCOc1ccc2nc(NC(=O)COc3cc(/C=C/C(=O)c4cc(OC)c(OC)c(OC)c4)ccc3OC)sc2c1`, the IC50 in assay [4] is 5.8 µM; in assay [5], 2.6 µM; in assay [6] (read-out: IC50), 2.4 µM; in assay [12], 8.1 µM; in assay [13] it was 4.2 µM.

In the case of `COc1ccc(/C=C/C(=O)c2cc(OC)c(OC)c(OC)c2)cc1O`, the Activity in assay [2] came to 12.34%; in assay [9], 55.47%; in assay [10], 18.59%. Also, the IC50 in assay [15] was found to be 3.7 µM; in [4], 0.19 µM; in assay [5], 1.62 µM; in [6] (read-out: IC50), 1.9 µM; in assay [12], 0.76 µM; in assay [13], 0.12 µM. In addition, in assay [16], the “fold change (FC)” value is 6. In addition, in [1], the inhibition came out at 62.6%. The inhibition entry in assay [14] was “Active”.
